Assay results as given in US11098059B2, “PRMT5 inhibitors” (Merck Sharp & Dohme Corp., priority 2017, dated 2021).
pEC50, pIC50: −log10 of the molar value. Read-outs that look alike come from different tables or passages of the source.

Tests used:
[1] = biological target: Full-length (FL)-PRMT5-MEP50 enzyme complex (Homo sapiens (Human), UniProt O14744); assay: PRMT5-MEP50 Enzyme Methylation Assay; type: biochemical; on Enzyme Methylation Assay IC50 1: top concentration 100000 nM
Method: PRMT5-MEP50 Enzyme Methylation Assay
PRMT5/MEP50 biochemical assay is a direct measurement of the methylation activity of the enzyme complex on a short peptide substrate derived from the N-terminus of H4 histone. The methylation experiment is performed with recombinant protein. The assessment of inhibitory effect (IC50) of small molecules is measured by the effectiveness of the compounds to inhibit this reaction.
To each well of a white ProxiPlus 384 well-plate, 100 nL of compound (1% DMSO in final assay volume of 10 μL) was dispensed, followed by the addition of 8 μL of 1× assay buffer (50 mM Bicine pH 8.0, 1 mM DTT, 0.004% Tween20, 0.01% BSA) containing 0.5 nM of Full-length (FL)-PRMT5-MEP50 enzyme complex (recombinant proteins from baculovirus-transfected Sf21 cells: FL-PRMT5; MW=[…] and FL-MEP50; MW=38614). Plates were sealed and placed in a 37° C. humidified chamber for 30 minutes pre-incubation with compounds. Subsequently, each reaction was initiated by the addition of 2 μL 1× assay buffer containing 75 nM biotinylated H4R3(Me1) peptide, and 15 μM S-(5′-Adenosyl)-L-Methionine Chloride (SAM). The final reaction in each well of 10 μL consists of 0.5 nM PRMT5-MEP50, 75 nM biotinylated-peptide, and 15 μM SAM. Methylation reactions were allowed to proceed for 150 minutes in a sealed plate at 37° C. Reactions were immediately quenched by the addition of 1 μL of 10% formic acid. Plates were then frozen and shipped to SAMDI™ Tech Inc. to determine the percent conversion from […]. IC50 values were determined by 7 parameters biphasic fit model plotting the percent product conversion vs. (Log10) compound concentrations.

PRMT5 = PRMT5 (Homo sapiens (Human), UniProt O14744); assay: PRMT5 Cell Target Engagement (TE) Assay; type: cell-based; details: treated 3 days, nuclear SDMA by high content imaging, top concentration 10000 nM
Chain of PRMT5 (O14744 whole entry): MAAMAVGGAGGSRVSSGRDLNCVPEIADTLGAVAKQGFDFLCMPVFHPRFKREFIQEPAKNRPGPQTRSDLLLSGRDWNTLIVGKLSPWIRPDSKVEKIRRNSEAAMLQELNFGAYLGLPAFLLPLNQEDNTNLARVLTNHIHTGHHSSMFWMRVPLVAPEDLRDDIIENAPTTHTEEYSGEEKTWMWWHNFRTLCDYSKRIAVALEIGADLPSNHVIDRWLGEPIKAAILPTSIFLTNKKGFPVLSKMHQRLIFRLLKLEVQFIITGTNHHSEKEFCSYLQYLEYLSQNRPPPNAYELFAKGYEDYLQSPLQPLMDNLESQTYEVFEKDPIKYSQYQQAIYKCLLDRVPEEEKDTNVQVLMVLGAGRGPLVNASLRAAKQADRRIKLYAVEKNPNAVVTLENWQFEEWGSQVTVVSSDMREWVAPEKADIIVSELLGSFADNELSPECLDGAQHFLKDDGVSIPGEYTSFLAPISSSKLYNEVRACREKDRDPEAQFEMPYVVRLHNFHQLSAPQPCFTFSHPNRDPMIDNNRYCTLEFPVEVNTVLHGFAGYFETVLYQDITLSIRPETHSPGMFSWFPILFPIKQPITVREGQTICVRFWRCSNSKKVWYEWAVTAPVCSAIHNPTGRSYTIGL
Chain of PRMT5 (Q9BQA1 whole entry partner): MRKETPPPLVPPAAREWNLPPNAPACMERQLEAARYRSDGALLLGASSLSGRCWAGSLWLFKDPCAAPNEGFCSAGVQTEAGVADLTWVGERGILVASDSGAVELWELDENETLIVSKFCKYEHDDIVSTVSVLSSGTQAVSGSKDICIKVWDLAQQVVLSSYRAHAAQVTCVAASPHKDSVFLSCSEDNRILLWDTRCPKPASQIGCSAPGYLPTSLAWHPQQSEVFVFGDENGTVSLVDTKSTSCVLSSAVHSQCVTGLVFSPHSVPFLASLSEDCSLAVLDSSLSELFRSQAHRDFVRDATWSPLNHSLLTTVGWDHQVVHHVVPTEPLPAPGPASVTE
Description: PRMT5 Cell Target Engagement (TE) Assay
The PRMT5 TE assay is a biomarker assay for identifying compounds that inhibit symmetric dimethylation of arginine (SDMA) of PRMT5 substrates. This assay detects symmetrically dimethylated nuclear proteins using high content imaging technology. Detection of the expression of symmetrically dimethylated nucleo proteins is through a mixture of primary rabbit monoclonal antibodies to SDMA (CST 13222), which in turn recognized by an Alexafluor 488 dye-conjugated anti-rabbit IgG secondary antibody. The IN Cell Analyzer 2200 measures nuclear Alexafluor 488 fluorescent dye intensity that is directly related to the level of expression of symmetrically dimethylated nuclear proteins at the single cell level. Nuclear AF488 dye intensities are compared to the mean value for DMSO treated cells […] to report percent of inhibition for each compound-treated well.
Each well of a BD falcon collagen coated black/clear bottom 384-well plate was seeded with 4000 MCF-7 cells and allowed to attach for 5 hours. Media from cell plate was removed at 0.5 mm above the bottom of the plate and replaced with 30 μL of fresh media containing 1.2× compounds in 0.1% DMSO. Cells were treated for 3 days in 37° C. CO2 incubator. On day 3, cells were fixed with Cytofix, permeablized with 0.4% Triton-X-100/Cytofix, and washed with D-PBS without Ca/Mg. Cells were blocked with Licor Odessey blocking reagent for one hour at room temperature, followed by incubation with anti-SDMA (1:1000) antibody at 4° C. overnight. 1 antibody was removed, followed by three washings with DPBS without Ca/Mg and 0.05% Tween20. Hoechst (5 μg/ml), Cell Mask deep stain (1:2000) and Alexa488-conjugated goat anti-rabbit IgG (2 μg/mL) was added for 1 hour at room temperature. A final washing step (three washes) was performed before sealing plate for imaging on In Cell Analyzer 2200. Images from analyzer were uploaded to Columbus (at WP) for image analysis. IC50 values were determined by 4 parameters robust fit of percent fluorescence units vs. (Log10) compound concentrations.

[2] = read-out: Enzyme Methylation Assay IC50_1
[3] = read-out: Enzyme Methylation Assay IC50_2
[4] = MCF-7 cells, read-out: TE Assay EC50

Chain of Full-length (FL)-PRMT5-MEP50 enzyme complex (O14744 whole entry): as the sequence (O14744 whole entry) above
Chain of Full-length (FL)-PRMT5-MEP50 enzyme complex (Q9BQA1 whole entry partner): as the sequence (Q9BQA1 whole entry partner) above

Row | SMILES | pIC50 [1, 2] | pIC50 [1, 3] | pEC50 (PRMT5; [4]) | pEC50 (PRMT5; TE Assay EC50, MCF-7 cells)
1 | CC[C@H]1CN(C[C@@H](O)[C@@H]2Cc3ccccc3CN2)C(=O)c2ccc(C(=O)N3C4CCC3COC4)cc21 (single isomer, unassigned) [Example 13] | 9.44 | 6.57 |  | 7.52
2 | CC[C@H]1CN(C[C@@H](O)[C@@H]2Cc3ccccc3CN2)C(=O)c2ccc(C(=O)N3C4CCC3COC4)cc21 (single isomer, unassigned) [Example 14] | 9.62 | 7.50 |  | 8.60
3 | CC[C@H]1CN(C[C@@H](O)[C@@H]2Cc3ccccc3CN2)C(=O)c2ccc(C(=O)N3C4CCC3COC4)cc21 (single isomer, unassigned) [Example 15] | 8.02 | 5.49 | 6.92 | 
4 | CC[C@H]1CN(C[C@@H](O)[C@@H]2Cc3ccccc3CN2)C(=O)c2ccc(C(=O)N3C4CCC3COC4)cc21 (single isomer, unassigned) [Example 16] | 7.75 | 5.05 | 6.08 | 
5 | CCC1CN(CC(O)[C@@H]2Cc3ccccc3CN2)C(=O)c2ccc(C(=O)N3C4CCC3COC4)cc21 (stereo partly drawn) [Example 12, 4-ethyl-2-{2-hydroxy-2-[(3S)-1,2,3,4-tetrahydroisoquinolin-3-yl]ethyl}-6-(3-oxa-8-azabicyclo[3.2.1]oct-8-ylcarbonyl)-3,4-dihydroisoquinolin-1(2H)-one] | 9.20 | 6.60 |  | 7.53
6 | CC1(C)CN(C[C@@H](O)[C@@H]2Cc3ccccc3CN2)C(=O)c2ccc(C(=O)N3C4CCC3COC4)cc21 [Example 19, 6-(3-oxa-8-azabicyclo[3.2.1]octane-8-carbonyl)-2-((R)-2-hydroxy-2-((S)-1,2,3,4-tetrahydroisoquinolin-3-yl)ethyl)-4,4-dimethyl-3,4-dihydroisoquinolin-1(2H)-one] | 9.28 | 6.86 |  | 8.02
7 | CC1(C)CN(C[C@H](O)[C@@H]2Cc3ccccc3CN2)C(=O)c2ccc(C(=O)N3C4CCC3COC4)cc21 [Example 20, 6-(3-oxa-8-azabicyclo[3.2.1]octane-8-carbonyl)-2-((S)-2-hydroxy-2-((S)-1,2,3,4-tetrahydroisoquinolin-3-yl)ethyl)-4,4-dimethyl-3,4-dihydroisoquinolin-1(2H)-one] | 7.89 | 5.39 | 6.81 | 
8 | CC1(C)CN(C[C@@H](O)[C@@H]2Cc3ccccc3CN2)C(=O)c2ccc(C(=O)N3[C@@H]4CC[C@H]3C[C@@H](O)C4)cc21 [Example 21, 2-((R)-2-hydroxy-2-((S)-1,2,3,4-tetrahydroisoquinolin-3-yl)ethyl)-6-((1R,3R,5S)-3-hydroxy-8-azabicyclo[3.2.1]octane-8-carbonyl)-4,4-dimethyl-3,4-dihydroisoquinolin-1(2H)-one] | 9.28 | 7.06 |  | 8.26
9 | CC1(C)CN(C[C@H](O)[C@@H]2Cc3ccccc3CN2)C(=O)c2ccc(C(=O)N3[C@@H]4CC[C@H]3C[C@@H](O)C4)cc21 [Example 22, 2-((S)-2-hydroxy-2-((S)-1,2,3,4-tetrahydroisoquinolin-3-yl)ethyl)-6-((1R,3S,5S)-3-hydroxy-8-azabicyclo[3.2.1]octane-8-carbonyl)-4,4-dimethyl-3,4-dihydroisoquinolin-1(2H)-one] | 7.30 | 4.82 | 5.28 | 
10 | CO[C@H]1C[C@H]2CC[C@@H](C1)N2C(=O)c1ccc2c(c1)C(C)(C)CN(C[C@@H](O)[C@@H]1Cc3ccccc3CN1)C2=O [Example 23, 2-((R)-2-hydroxy-2-((S)-1,2,3,4-tetrahydroisoquinolin-3-yl)ethyl)-6-((1R,3R,5S)-3-methoxy-8-azabicyclo[3.2.1]octane-8-carbonyl)-4,4-dimethyl-3,4-dihydroisoquinolin-1(2H)-one] | 9.30 | 7.01 |  | 8.67

Now from value to molecule, other results behind:

Row | pIC50 [1, 2] | pIC50 [1, 3] | pEC50 (PRMT5; [4]) | SMILES | pEC50 (PRMT5; TE Assay EC50, MCF-7 cells)
11 | 8.27 | 5.43 | 5.54 | CC[C@H]1CN(C[C@@H](O)[C@@H]2Cc3ccccc3CN2)C(=O)c2ccc(Br)cc21 (single isomer, unassigned) [Example 1] | 
12 | 9.68 | 6.77 | 6.67 | CC[C@H]1CN(C[C@@H](O)[C@@H]2Cc3ccccc3CN2)C(=O)c2ccc(Br)cc21 (single isomer, unassigned) [Example 2] | 
13 | 6.39 | 4.67 | ≤ 5.00 | CC[C@H]1CN(C[C@@H](O)[C@@H]2Cc3ccccc3CN2)C(=O)c2ccc(Br)cc21 (single isomer, unassigned) [Example 3] | 
14 | 7.34 | 4.59 | ≤ 5.00 | CC[C@H]1CN(C[C@@H](O)[C@@H]2Cc3ccccc3CN2)C(=O)c2ccc(Br)cc21 (single isomer, unassigned) [Example 4] | 
15 | 6.33 | ≤ 4.00 | ≤ 5.00 | CC[C@H]1CN(C[C@@H](O)[C@@H]2Cc3ccccc3CN2)C(=O)c2ccc(-c3ncnn3C)cc21 (single isomer, unassigned) [Example 5] | 
16 | 8.42 | 5.29 | 5.84 | CC[C@H]1CN(C[C@@H](O)[C@@H]2Cc3ccccc3CN2)C(=O)c2ccc(-c3ncnn3C)cc21 (single isomer, unassigned) [Example 6] | 
17 | 9.51 | 6.50 | 6.84 | CC[C@H]1CN(C[C@@H](O)[C@@H]2Cc3ccccc3CN2)C(=O)c2ccc(-c3ncnn3C)cc21 (single isomer, unassigned) [Example 7] | 
18 | 7.31 | 4.55 | 5.11 | CC[C@H]1CN(C[C@@H](O)[C@@H]2Cc3ccccc3CN2)C(=O)c2ccc(-c3ncnn3C)cc21 (single isomer, unassigned) [Example 8] | 
19 | 9.40 | 6.43 | 7.65 | CCC1CN(C[C@@H](O)[C@@H]2Cc3ccccc3CN2)C(=O)c2ccc(-c3ncnn3C3CC3)cc21 (single isomer, unassigned) [Example 10] | 
20 | 9.33 | 6.37 | 7.53 | CC1(C)CN(C[C@@H](O)[C@@H]2Cc3ccccc3CN2)C(=O)c2ccc(-c3ncnn3C3CC3)cc21 [Example 9, 6-(1-cyclopropyl-1H-1,2,4-triazol-5-yl)-2-{(2R)-2-hydroxy-2-[(3S)-1,2,3,4-tetrahydroisoquinolin-3-yl]ethyl}-4,4-dimethyl-3,4-dihydroisoquinolin-1(2H)-one] | 
21 | 9.54 | 6.89 | 7.77 | O=C1c2ccc(-c3ncnn3C3CC3)cc2C2(CCC2)CN1C[C@@H](O)[C@@H]1Cc2ccccc2CN1 [Example 11, 6′-(1-cyclopropyl-1H-1,2,4-triazol-5-yl)-2′-{(2R)-2-hydroxy-2-[(3S)-1,2,3,4-tetrahydroisoquinolin-3-yl]ethyl}-2′,3′-dihydro-1′H-spiro[cyclobutane-1,4′-isoquinolin]-1′-one] | 
22 | 9.21 | 6.43 | 6.70 | CC1(C)CN(C[C@@H](O)[C@@H]2Cc3ccccc3CN2)C(=O)c2ccc(Br)cc21 [Example 17, 6-bromo-2-((R)-2-hydroxy-2-((S)-1,2,3,4-tetrahydroisoquinolin-3-yl)ethyl)-4,4-dimethyl-3,4-dihydroisoquinolin-1(2H)-one] | 
23 | 6.65 | ≤ 4.00 | ≤ 5.00 | CC1(C)CN(C[C@H](O)[C@@H]2Cc3ccccc3CN2)C(=O)c2ccc(Br)cc21 [Example 18, 6-bromo-2-((S)-2-hydroxy-2-((S)-1,2,3,4-tetrahydroisoquinolin-3-yl)ethyl)-4,4-dimethyl-3,4-dihydroisoquinolin-1(2H)-one] | 
